Measured values taken from PMC8840040, “Pharmacokinetic Characterization of the DDAH1 Inhibitors ZST316 and ZST152 in Mice Using a HPLC-MS/MS Method” (Molecules, 2022).

Assay: Urinary metabolites in 24 h urine by HPLC-MS/MS
Format: in vivo, FVB mice
Procedure: The assessment of the urinary elimination after oral and intravenous administration, in the urine fraction collected 24 h post dose, is reported in Table 6. […] To further investigate this issue, we searched for the presence of urinary metabolites in the 24 h urine samples in one mouse per treatment group. We identified at least eight molecules most likely originating from the parent compounds (Table 7; see Supplementary Figure S1 for the hypothesized structures).
Mice were treated with ZST316 and ZST152 using a dose of 60 mg/Kg (oral gavage) and 30 mg/Kg (intravenous bolus). For pharmacokinetic sampling, blood was collected at 15 and 30 min, and 1, 3, 8, and 24 h post dose. Three mice were analyzed per each time point. After the animals were anesthetized with isoflurane, the blood was drained from the retro-orbital plexus into heparinized tubes, and then centrifuged for 10 min at 4000× g at 4 °C to separate plasma. A 24-h urine fraction was collected in three mice for each drug and route of administration. Plasma and urine samples were stored at −20 °C until analysis by HPLC-MS/MS.
[…] chromatography was performed using a series 200 HPLC system (Perkin Elmer, Waltham, MA, USA) under gradient conditions with separation on a HILIC column, 3 µm, 100 A, 2.1 × 150 mm (Waters, Milford, MA, USA), coupled with a 3 µm, 3.9 × 5.0 mm guard column of the same material at the flow rate of 0.2 mL/min. Gradient features: 10% mobile phase (MP) A (NH4HCO2 10 mM, 10% CH3CN, 0.1% HCOOH) and 90% MP B (CH3CN, 0.1% HCOOH) as the initial constant condition; then to 90% MP A in 6 min and the constant condition for 1.5 min. Return to the start condition in 0.5 min and conditioning for 5.5 min. Total run time: 13.5 min. Mass spectrometric detection was performed using an API 4000 triple quadrupole mass spectrometer (SCIEX, Framingham, MA, USA) supplied with a Turbo Ion Spray source set at 350 °C and −4200 V, analyzing biological samples with electrospray ionization (ESI) operating in negative ion mode. Purified air was used as nebulizer gas (Gas 1) and heater gas (Gas 2) and N2 was used as curtain gas and collision activated dissociation gas. They were set to 40, 50, 20, and 4 instrument units (psi), respectively. The declustering potential (DP) was set at −119 V and the collision exit potential (CXP) at –10 V. All parameters of the source were defined by direct infusion of ZST316 and ZST152 1 µg/mL in mobile phase B. The final quantification was carried out in Selected Reaction Monitoring (SRM) with the following transitions: m/z 307.9 → 208.0 (collision energy of −29.5 eV) for ZST316 and m/z 271.9 → 170.9 (collision energy −24.7 eV) for ZST152 (Figure 2 and Figure 3). Data were processed with the software package Analyst 1.6.2 (AB SCIEX).

[1] = after intravenous ZST152, total dose 1.410 mg, mouse #1, 24 h urine
[2] = after intravenous ZST316, total dose 1.326 mg, mouse #1, 24 h urine
[3] = after oral ZST152, total dose 1.158 mg, mouse #3, 24 h urine
[4] = after oral ZST316, total dose 1.308 mg, mouse #3, 24 h urine

Structure (SMILES) | % of Dose recovered in urine [1] | Amount Recovered in urine [1] | % of Dose recovered in urine [2] | Amount Recovered in urine [2] | % of Dose recovered in urine [3] | Amount Recovered in urine [3] | % of Dose recovered in urine [4] | Amount Recovered in urine [4]
COCCNC(=N)N [M1] | 0.039% | 0.55 µg | 0.017% | 0.23 µg | 0.088% | 1.02 µg | 0.21% | 2.74 µg
COCCNC(=N)NCCC[C@H](N)C=NO [M6] | 0.10% | 1.48 µg | – | – | 0.014% | 0.16 µg | – | –
COCCNC(=N)NCCC[C@H](N)C(=O)O [M7] | 0.13% | 1.77 µg | 6.5% | 86.1 µg | 0.22% | 2.58 µg | 76% | 991 µg
COCCNC(=N)NCCC[C@H](O)C(=O)O [M8] | – | – | 0.37% | 4.87 µg | – | – | 4.1% | 53.4 µg
COCCNC(=N)NCCC[C@H](O)C(=O)NC(C)=O [M9] | – | – | 0.32% | 4.28 µg | – | – | 5.4% | 71.0 µg

Continued, values first:

% of Dose recovered in urine [1] | Amount Recovered in urine [1] | % of Dose recovered in urine [2] | Amount Recovered in urine [2] | % of Dose recovered in urine [3] | Amount Recovered in urine [3] | % of Dose recovered in urine [4] | Amount Recovered in urine [4] | Structure (SMILES)
9.05% | 128 µg | – | – | 0.023% | 0.27 µg | – | – | COCCNC(=N)NCCCC=O [M2]
0.19% | 2.62 µg | – | – | 4.2% | 49.1 µg | – | – | COCCNC(=N)NCCCCO [M3]
6.6% | 93.3 µg | 0.66% | 8.71 µg | 7.6% | 87.8 µg | 8.2% | 108 µg | COCCNC(=N)NCCCC(=O)O [M4]
